Assay results published in ChEMBL document CHEMBL1201862, “PubChem BioAssay data set” (2004).
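Assay format: 96-well plates, 48-hour exposure. Here, GI50 denotes the concentration required for 50% inhibition of growth.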 Active and inactive are the calls of the source. Rule as the data show it: active = GI50 up to about 1.1 µM and inactive = higher.

Experiments:
Test in all cases: inhibition of tumour cell growth, NCI panel, 48 h
U-251 = test system: U-251
SK-OV-3 = test system: SK-OV-3
SN12C = test system: SN12C
786-0 = test system: 786-0
OVCAR-5 = test system: OVCAR-5
SW-620 = test system: SW-620
UACC-62 = test system: UACC-62
NCI/ADR-RES = test system: NCI/ADR-RES
SNB-75 = test system: SNB-75
HL-60 = test system: HL-60
SF-295 = test system: SF-295
K562 = test system: K562
EKVX = test system: EKVX
SK-MEL-2 = test system: SK-MEL-2
SF-539 = test system: SF-539
MOLT-4 = test system: MOLT-4
MCF7 = test system: MCF7
SF-268 = test system: SF-268
BT-549 = test system: BT-549
SR = test system: SR

SMILES | GI50 (U-251) | GI50 (SK-OV-3) | GI50 (SN12C) | GI50 (786-0) | GI50 (OVCAR-5) | GI50 (SW-620) | GI50 (UACC-62) | GI50 (NCI/ADR-RES) | GI50 (SNB-75) | GI50 (HL-60) | GI50 (SF-295) | GI50 (K562) | GI50 (EKVX) | GI50 (SK-MEL-2) | GI50 (SF-539) | GI50 (MOLT-4) | GI50 (MCF7) | GI50 (SF-268) | GI50 (BT-549) | GI50 (SR)
Cc1c(C(=O)O)sc2nc[nH]c(=O)c12 | > 100 µM (inactive) | > 100 µM (inactive) | > 100 µM (inactive) | > 100 µM (inactive) | > 100 µM (inactive) | > 100 µM (inactive) | > 100 µM (inactive) | > 100 µM (inactive) | 49.8 µM (inactive) | > 100 µM (inactive) | > 100 µM (inactive) | > 100 µM (inactive) | 53.8 µM (inactive) | > 100 µM (inactive) | > 100 µM (inactive) | > 100 µM (inactive) | > 100 µM (inactive) | > 100 µM (inactive) | – | –
CC12CCC(CC1=O)C2(C)CCC(N)=O (stereo unspecified) | > 100 µM (inactive) | > 100 µM (inactive) | > 100 µM (inactive) | > 100 µM (inactive) | > 100 µM (inactive) | > 100 µM (inactive) | > 100 µM (inactive) | > 100 µM (inactive) | – | – | > 100 µM (inactive) | > 100 µM (inactive) | > 100 µM (inactive) | > 100 µM (inactive) | – | > 100 µM (inactive) | > 100 µM (inactive) | > 100 µM (inactive) | > 100 µM (inactive) | –
O=C1CSC(c2cccc(Cl)c2)N1c1c(O)c(Cl)cc(Br)c1Cl (stereo unspecified) | 25.5 µM (inactive) | > 100 µM (inactive) | 58.5 µM (inactive) | 25.5 µM (inactive) | > 100 µM (inactive) | 17.2 µM (inactive) | 22.6 µM (inactive) | 71 µM (inactive) | 29.4 µM (inactive) | 25.8 µM (inactive) | > 100 µM (inactive) | 45.2 µM (inactive) | > 100 µM (inactive) | 14.9 µM (inactive) | 28.8 µM (inactive) | 23.6 µM (inactive) | 15.6 µM (inactive) | 57.8 µM (inactive) | – | 24.8 µM (inactive)
CC[N+](C)(CC)CCN1C(=O)c2ccccc2S1(=O)=O | > 100 µM (inactive) | > 100 µM (inactive) | > 100 µM (inactive) | > 100 µM (inactive) | > 100 µM (inactive) | > 100 µM (inactive) | > 100 µM (inactive) | > 100 µM (inactive) | > 100 µM (inactive) | > 100 µM (inactive) | > 100 µM (inactive) | – | > 100 µM (inactive) | > 100 µM (inactive) | > 100 µM (inactive) | 39.8 µM (inactive) | > 100 µM (inactive) | > 100 µM (inactive) | > 100 µM (inactive) | –
CC[C@]1(O)C(=O)OCc2c1cc1n(c2=O)Cc2cc3c(N)cccc3nc2-1 | > 100 µM (inactive) | > 100 µM (inactive) | > 100 µM (inactive) | > 100 µM (inactive) | > 100 µM (inactive) | > 100 µM (inactive) | > 100 µM (inactive) | – | 20.5 µM (inactive) | > 100 µM (inactive) | > 100 µM (inactive) | > 100 µM (inactive) | > 100 µM (inactive) | > 100 µM (inactive) | > 100 µM (inactive) | > 100 µM (inactive) | – | > 100 µM (inactive) | – | > 100 µM (inactive)
C(CCCCc1nnc(N2CCCCC2)o1)CCCc1nnc(N2CCCCC2)o1 | > 100 µM (inactive) | > 100 µM (inactive) | > 100 µM (inactive) | > 100 µM (inactive) | > 100 µM (inactive) | > 100 µM (inactive) | – | > 100 µM (inactive) | > 100 µM (inactive) | > 100 µM (inactive) | > 100 µM (inactive) | > 100 µM (inactive) | > 100 µM (inactive) | > 100 µM (inactive) | > 100 µM (inactive) | > 100 µM (inactive) | > 100 µM (inactive) | > 100 µM (inactive) | > 100 µM (inactive) | –
CCOC(=O)C(=CNC(=S)Nc1c(CC)cccc1CC)C(=O)OCC | > 100 µM (inactive) | > 100 µM (inactive) | > 100 µM (inactive) | > 100 µM (inactive) | > 100 µM (inactive) | > 100 µM (inactive) | > 100 µM (inactive) | > 100 µM (inactive) | 12.8 µM (inactive) | > 100 µM (inactive) | > 100 µM (inactive) | > 100 µM (inactive) | > 100 µM (inactive) | > 100 µM (inactive) | > 100 µM (inactive) | > 100 µM (inactive) | > 100 µM (inactive) | > 100 µM (inactive) | – | > 100 µM (inactive)
CN1C(=O)C(C(=O)Nc2ccccn2)C2C[C@@]1(C)Oc1ccccc12 (stereo partly specified) | > 100 µM (inactive) | > 100 µM (inactive) | – | > 100 µM (inactive) | > 100 µM (inactive) | > 100 µM (inactive) | 12 µM (inactive) | > 100 µM (inactive) | > 100 µM (inactive) | > 100 µM (inactive) | > 100 µM (inactive) | > 100 µM (inactive) | 63.5 µM (inactive) | > 100 µM (inactive) | – | 62.7 µM (inactive) | – | > 100 µM (inactive) | > 100 µM (inactive) | –
O=C(N/C=C1\C(=O)Oc2ccccc2C1=O)Nc1ccccc1 | 40.2 µM (inactive) | 31.6 µM (inactive) | 32.8 µM (inactive) | 43.3 µM (inactive) | 61.5 µM (inactive) | 61.2 µM (inactive) | 38.5 µM (inactive) | – | 12.8 µM (inactive) | > 100 µM (inactive) | > 100 µM (inactive) | > 100 µM (inactive) | > 100 µM (inactive) | 18.5 µM (inactive) | 43.8 µM (inactive) | > 100 µM (inactive) | – | 31.8 µM (inactive) | – | 69 µM (inactive)
CC1(C(=O)Nc2ccc3cc4ccccc4cc3c2)CC2(C)CC(C)(C1)C(O)NC2=O (stereo unspecified) | > 100 µM (inactive) | > 100 µM (inactive) | > 100 µM (inactive) | > 100 µM (inactive) | > 100 µM (inactive) | > 100 µM (inactive) | > 100 µM (inactive) | – | > 100 µM (inactive) | 20.9 µM (inactive) | 66.5 µM (inactive) | 73.1 µM (inactive) | > 100 µM (inactive) | > 100 µM (inactive) | > 100 µM (inactive) | 20.6 µM (inactive) | – | > 100 µM (inactive) | – | 23.6 µM (inactive)
Cc1cc2[nH]c3c(C#N)c4c(c(=O)n3c2cc1C)CCCC4 | 40.2 µM (inactive) | 14.1 µM (inactive) | > 100 µM (inactive) | > 100 µM (inactive) | 18.7 µM (inactive) | > 100 µM (inactive) | > 100 µM (inactive) | > 100 µM (inactive) | – | 96.6 µM (inactive) | 16 µM (inactive) | 64.9 µM (inactive) | > 100 µM (inactive) | > 100 µM (inactive) | > 100 µM (inactive) | > 100 µM (inactive) | > 100 µM (inactive) | 79.3 µM (inactive) | > 100 µM (inactive) | –
CCN(CC)CC1CCCCN1CC(=O)N1c2ccccc2NC(=O)c2ccccc21 (stereo unspecified) | > 100 µM (inactive) | > 100 µM (inactive) | > 100 µM (inactive) | > 100 µM (inactive) | > 100 µM (inactive) | > 100 µM (inactive) | > 100 µM (inactive) | > 100 µM (inactive) | 13.9 µM (inactive) | > 100 µM (inactive) | > 100 µM (inactive) | 79.3 µM (inactive) | > 100 µM (inactive) | > 100 µM (inactive) | > 100 µM (inactive) | > 100 µM (inactive) | > 100 µM (inactive) | > 100 µM (inactive) | – | > 100 µM (inactive)
CC(CO)C1=CC(C#CCOCc2ccccc2)N(C(=O)Oc2ccccc2)c2ccccc21 (stereo unspecified) | 34.5 µM (inactive) | 34.9 µM (inactive) | 15.9 µM (inactive) | 28 µM (inactive) | 64.1 µM (inactive) | 45.5 µM (inactive) | 2.81 µM (inactive) | 8.89 µM (inactive) | 22.9 µM (inactive) | 26.3 µM (inactive) | 7.24 µM (inactive) | 8.26 µM (inactive) | 10.3 µM (inactive) | 23.3 µM (inactive) | 41 µM (inactive) | 4.63 µM (inactive) | – | 24.9 µM (inactive) | – | 9.53 µM (inactive)
c1ccc(C/C(=N\Nc2nc3ccccc3[nH]2)c2ccccn2)cc1 | < 0.0221 µM (active) | 0.033 µM (active) | 0.0295 µM (active) | 0.0316 µM (active) | – | < 0.01 µM (active) | 0.147 µM (active) | < 0.0164 µM (active) | 0.403 µM (active) | – | 1.92 µM (inactive) | 0.0228 µM (active) | – | 2.89 µM (inactive) | 0.196 µM (active) | < 0.01 µM (active) | < 0.01 µM (active) | 0.0444 µM (active) | 0.248 µM (active) | –
CC(C)(CCCCC(C)(C)[N+](C)(C)C)[N+](C)(C)C | > 100 µM (inactive) | > 100 µM (inactive) | > 100 µM (inactive) | > 100 µM (inactive) | > 100 µM (inactive) | > 100 µM (inactive) | – | > 100 µM (inactive) | > 100 µM (inactive) | > 100 µM (inactive) | – | > 100 µM (inactive) | > 100 µM (inactive) | – | > 100 µM (inactive) | > 100 µM (inactive) | > 100 µM (inactive) | > 100 µM (inactive) | – | > 100 µM (inactive)
COC(=O)NCCc1n[nH]c2c1C(=O)C=C(OC)C2=O | 16.7 µM (inactive) | > 100 µM (inactive) | 20.3 µM (inactive) | 19.5 µM (inactive) | 20.7 µM (inactive) | 22.6 µM (inactive) | 25.4 µM (inactive) | > 100 µM (inactive) | 19.2 µM (inactive) | 16.6 µM (inactive) | 18.2 µM (inactive) | 17.5 µM (inactive) | 22.9 µM (inactive) | 54.2 µM (inactive) | 19.4 µM (inactive) | 19.9 µM (inactive) | 27.2 µM (inactive) | 18.5 µM (inactive) | – | 15 µM (inactive)
